From patent publication US6903132B2, “Non-peptide GnRH agents, pharmaceutical compositions and methods for their use” (Agouron Pharmaceuticals, Inc., priority 2002, dated 2005)

Experiments:
Assay in all cases: Radioligand binding assay: inhibition of binding of 125I-GnRH-A to GnRH receptors (membranes)
human GnRH receptors = target: T1, human GnRH receptors (Homo sapiens, UniProt P30968); details: Human GnRH receptor; competition with 125I-GnRH-A; Ki calculated from IC50 (Cheng et al.)
T1 construct: expressed in transfected cells; host or cells: HEK 293
T1 sequence (P30968 1-328): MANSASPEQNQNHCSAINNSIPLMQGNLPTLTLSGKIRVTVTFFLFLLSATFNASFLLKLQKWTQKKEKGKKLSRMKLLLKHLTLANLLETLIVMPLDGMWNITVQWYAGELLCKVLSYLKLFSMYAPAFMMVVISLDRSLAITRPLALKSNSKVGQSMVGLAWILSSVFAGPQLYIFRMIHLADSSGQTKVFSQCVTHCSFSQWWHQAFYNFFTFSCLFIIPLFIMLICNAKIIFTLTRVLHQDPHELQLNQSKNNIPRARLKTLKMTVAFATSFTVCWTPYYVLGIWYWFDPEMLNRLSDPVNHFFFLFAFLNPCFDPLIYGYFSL
Method in brief: (§1)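 Membranes from HEK 293 expressing mouse or human receptor, or rat pituitaries, incubated 1 h at RT with ~0.04–0.06 nM ¹²⁵I-[des-Gly¹⁰,D-Ala⁶]GnRH ethylamide and competitor (0.1–10,000 nM) in HEPES pH 7.4 with MgCl2, EDTA, BSA. Filtration onto PEI-soaked GF/C filters, scintillation counting; Ki from IC50 by Cheng–Prusoff.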

rat GnRH receptor = target: T2, rat GnRH receptor (Rattus norvegicus, UniProt P30969); details: competition with 125I-GnRH-A, Ki calculated from IC50 (Cheng et al.)
T2 construct: rat pituitaries (Pel Freez Biologicals, Rogers, Ark.) are homogenized in buffer A; tissue Pel Freez Biologicals; host or cells: rat pituitaries
T2 sequence (P30969 1-327): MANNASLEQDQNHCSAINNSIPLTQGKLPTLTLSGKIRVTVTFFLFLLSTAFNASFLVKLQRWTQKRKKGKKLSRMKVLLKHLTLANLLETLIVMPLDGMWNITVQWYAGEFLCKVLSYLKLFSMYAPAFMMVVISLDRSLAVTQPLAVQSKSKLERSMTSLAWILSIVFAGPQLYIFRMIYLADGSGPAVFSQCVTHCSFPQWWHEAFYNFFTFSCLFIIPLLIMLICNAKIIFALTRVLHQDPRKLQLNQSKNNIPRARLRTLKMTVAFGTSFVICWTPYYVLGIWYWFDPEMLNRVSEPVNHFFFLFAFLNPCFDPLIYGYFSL
Method in brief: as §1

mouse GnRH receptors = target: T3, mouse GnRH receptors (Mus musculus, UniProt Q01776); details: Mouse GnRH receptor; competition with 125I-GnRH-A; Ki calculated from IC50 (Cheng et al.)
T3 construct: expressed in transfected cells; host or cells: HEK 293
T3 sequence (Q01776 1-327): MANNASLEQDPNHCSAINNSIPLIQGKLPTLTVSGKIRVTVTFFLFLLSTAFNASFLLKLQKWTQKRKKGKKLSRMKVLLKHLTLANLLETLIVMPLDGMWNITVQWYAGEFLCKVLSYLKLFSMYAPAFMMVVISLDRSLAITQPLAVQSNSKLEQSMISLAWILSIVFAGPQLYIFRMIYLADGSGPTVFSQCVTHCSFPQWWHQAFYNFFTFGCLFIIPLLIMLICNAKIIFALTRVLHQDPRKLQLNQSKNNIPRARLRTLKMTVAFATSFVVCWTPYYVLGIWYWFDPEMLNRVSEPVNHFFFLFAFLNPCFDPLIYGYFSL
Method in brief: as §1

Compound	Ki (human GnRH receptors)	Ki (rat GnRH receptor)	Ki (mouse GnRH receptors)
Cc1cc(Cl)c(C(C)C)cc1Oc1ccc(C(=O)NNc2cc(C)c3c(C)nn(C)c3n2)o1 [Example I23, 5-(4-Chloro-5-isopropyl-2-methyl-phenoxy)-furan-2-carboxylic acid N′-(1,3,4-trimethyl-1H-pyrazolo[3,4-b]pyridin-6-yl)-hydrazide]	30 nM	370 nM	22 nM
Cc1cc(C)c(-c2ccccc2)cc1Cc1ccc(C(=O)NNc2cc(C)c3c(C)nn(C)c3n2)o1 [Example J18, 5-[(4,6-dimethyl[1,1′-biphenyl]-3-yl)methyl]-N′-(1,3,4-trimethyl-1H-pyrazolo[3,4-b]pyridin-6-yl)-2-furohydrazide]	170 nM	290 nM	480 nM
Cc1cc(C)c(C)c(Cc2ccc(C(=O)NNc3cc(C)c4c(C)nn(C)c4n3)o2)c1C [Example J12, 5-(2,3,5,6-Tetramethylbenzyl)-N′-(1,3,4-trimethyl-1H-pyrazolo[3,4-b]pyridin-6-yl)-2-furohydrazide]	260 nM	1200 nM	850 nM
COc1ccc(C(C)(C)C)cc1Cc1ccc(C(=O)NNc2cc(C)c3c(C)nn(C)c3n2)o1 [Example J19, 5-[5-(tert-butyl)-2-methoxybenzyl]-N′-(1,3,4-trimethyl-1H-pyrazolo[3,4-b]pyridin-6-yl)-2-furohydrazide]	140 nM	230 nM	320 nM
Cc1sc2c(c1Cc1ccc(C(=O)NNc3cc(C)c4c(C)nn(C)c4n3)o1)C(C)(C)CCC2(C)C [Example J28, 5-(2,4,4,7,7-Pentamethyl-4,5,6,7-tetrahydro-benzo[b]thiophen-3-ylmethyl)-furan-2-carboxylic acid N′-(1,3,4-trimethyl-1H-pyrazolo[3,4-b]pyridin-6-yl)-hydrazide]	30 nM	245 nM	130 nM
COc1c(Oc2ccc(C(=O)NNc3cc(C)c4c(C)nn(C)c4n3)o2)c(C)cc2c1C(C)(C)CCC2 [Example I10, 5-(1-Methoxy-3,8,8-trimethyl-5,6,7,8-tetrahydro-naphthalen-2-yloxy)-furan-2-carboxylic acid N′-(1,3,4-trimethyl-1H-pyrazolo[3,4-b]pyridin-6-yl)-hydrazide]	146 nM	230 nM	160 nM
Cc1cc2c(c(O)c1Oc1ccc(C(=O)NNc3cc(C)c4c(C)nn(C)c4n3)o1)C(C)(C)CCC2(C)C [Example I29, 5-(1-Hydroxy-3,5,5,8,8-pentamethyl-5,6,7,8-tetrahydro-naphthalen-2-yloxy)-furan-2-carboxylic acid N′-(1,3,4-trimethyl-1H-pyrazolo[3,4-b]pyridin-6-yl)-hydrazide]	49 nM	64 nM	58 nM
Cc1cc2c(cc1Oc1ccc(C(=O)NNc3cc(C)c4c(C)nn(C)c4n3)o1)C(C)(C)OC2 [Example N2, 5-(3,3,6-Trimethyl-1,3-dihydro-isobenzofuran-5-yloxy)-furan-2-carboxylic acid N′-(1,3,4-trimethyl-1H-pyrazolo[3,4-b]pyridin-6-yl)-hydrazide]	28 nM	86 nM	22 nM
Cc1cc(NNC(=O)c2ccc(Oc3cc(C(C)(C)C)ccc3Br)o2)nc2c1c(C)nn2C [Example I6, 5-(2-Bromo-5-tert-butyl-phenoxy)-furan-2-carboxylic acid N′-(1,3,4-trimethyl-1H-pyrazolo[3,4-b]pyridin-6-yl)-hydrazide]	50 nM	79 nM	61 nM
Cc1ccc(C(C)(C)C)cc1Oc1ccc(C(=O)NNc2ccc3ccccc3n2)o1 [Example I17, 5-(5-tert-Butyl-2-methyl-phenoxy)-furan-2-carboxylic acid N′-quinolin-2-yl-hydrazide]	70 nM	50 nM	43 nM
Cc1cc(NNC(=O)c2ccc(Oc3cc4c(cc3Cl)N(C)CCC4(C)C)o2)nc2c1c(C)nn2C [Example I27, 5-(7-Chloro-1,4,4-trimethyl-1,2,3,4-tetrahydro-quinolin-6-yloxy)-furan-2-carboxylic acid N′-(1,3,4-trimethyl-1H-pyrazolo[3,4-b]pyridin-6-yl)-hydrazide]	101 nM	370 nM	122 nM
Cc1cc2c(cc1Oc1ccc(C(=O)NNc3cc(C)c4c(C)nn(C)c4n3)o1)C(c1ccccc1)CCC2 (stereo not drawn) [Example I18, 5-(3-Methyl-8-phenyl-5,6,7,8-tetrahydro-naphthalen-2-yloxy)-furan-2-carboxylic acid N′-(1,3,4-trimethyl-1H-pyrazolo[3,4-b]pyridin-6-yl)-hydrazide]	58 nM	154 nM	59 nM
Cc1cc2c(cc1Cc1ccc(C(=O)NNc3ncc(C(F)(F)F)cc3Cl)o1)C(C)(C)CCC2(C)C [Example C12, N′-[3-Chloro-5-(trifluoromethyl)-2-pyridinyl]-5-[(3,5,5,8,8-pentamethyl-5,6,7,8-tetrahydro-2-naphthalenyl)methyl]-2-furohydrazide]	46 nM	39 nM	33 nM

Stronger by Ki (human GnRH receptors), values ahead:

Ki (human GnRH receptors)	Ki (rat GnRH receptor)	Ki (mouse GnRH receptors)	Compound
17 nM	39 nM	44 nM	Cc1ccc(C(C)(C)C)cc1Oc1ccc(C(=O)NNc2cc(C)c3c(C)nn(C)c3n2)o1 [Example I19, 5-(5-tert-Butyl-2-methyl-phenoxy)-furan-2-carboxylic acid N′-(1,3,4-trimethyl-1H-pyrazolo[3,4-b]pyridin-6-yl)-hydrazide]
8.3 nM	25 nM	14 nM	Cc1cc(NNC(=O)c2ccc(Oc3cc4c(cc3Cl)NCCC4(C)C)o2)nc2c1c(C)nn2C [Example I26, 5-(7-Chloro-4,4-dimethyl-1,2,3,4-tetrahydro-quinolin-6-yloxy)-furan-2-carboxylic acid N′-(1,3,4-trimethyl-1H-pyrazolo[3,4-b]pyridin-6-yl)-hydrazide]
6.3 nM	29 nM	16 nM	Cc1cc2c(c(Br)c1Oc1ccc(C(=O)NNc3cc(C)c4c(C)nn(C)c4n3)o1)C(C)(C)CCC2(C)C [Example I8, 5-(1-Bromo-3,5,5,8,8-pentamethyl-5,6,7,8-tetrahydro-naphthalen-2-yloxy)-furan-2-carboxylic acid N′-(1,3,4-trimethyl-1H-pyrazolo[3,4-b]pyridin-6-yl)-hydrazide]
4.2 nM	22 nM	5 nM	Cc1cc2c(cc1Oc1ccc(C(=O)NNc3cc(C)c4c(C)nn(C)c4n3)o1)C(C)(C)CCC2 [Example I21, N′-(1,3,4-trimethyl-1H-pyrazolo[3,4-b]pyridin-6-y)-5-[(3,8,8-trimethyl-5,6,7,8-tetrahydro-2-naphthalenyl)oxy]-2-furohydrazide]
2.8 nM	17 nM	11 nM	Cc1cc2c(cc1Oc1ccc(C(=O)NNc3cc(C)c4c(C)nn(C)c4n3)o1)C(C)(C)CC2 [Example I7, 5-(3,3,6-Trimethyl-indan-5-yloxy)-furan-2-carboxylic acid N′-(1,3,4-trimethyl-1H-pyrazolo[3,4-b]pyridin-6-yl)-hydrazide]
1.3 nM	22 nM	8.2 nM	Cc1cc(NNC(=O)c2ccc(Cc3cc4c(cc3Cl)C(C)(C)CCC4(C)C)o2)nc2c1c(C)nn2C [Example C4, 5-[(3-chloro-5,5,8,8-tetramethyl-5,6,7,8-tetrahydro-2-naphthalenyl)methyl]-N′-(1,3,4-trimethyl-1H-pyrazolo[3,4-b]pyridin-6-yl)-2-furohydrazide]
0.9 nM	2 nM	3.3 nM	Cc1cc2c(cc1Cc1ccc(C(=O)NNc3cc(C)c4c(C)nn(C)c4n3)o1)C(C)(C)CC2(C)C [Example J15, 5-[(1,1,3,3,6-pentamethyl-2,3-dihydro-1H-inden-5-yl)methyl]-N-(1,3,4-trimethyl-1H-pyrazdo[3,4-b]Pyridin-6-yl)-2-furohydrazide]
